Experimental data taken from patent US20260199293A1, “2-Arylbenzimidazole Compounds for the Treatment of Hemoglobinopathies” (TRANQUIS THERAPEUTICS, INC., priority 2022, published 2026).

Assays:
[1] = tested on: human primary erythroid progenitor CD34+ cells; assay: Effects on human primary erythroid progenitor CD34+ cells (F cells by flow cytometry, globin mRNA by qRT-PCR), Example 7; format: cell-based; settings: for percentage of HbF-positive cells (F cells): flow cytometry
Protocol: The effects of the compounds and formulations described in Sections 3.2 and 3.3 hereinabove on human primary erythroid progenitor CD34^+ cells are studies using methods adapted from Sun et al. Sun et al., Br J Haematol. 197:97-109 (2022), the disclosure of which is herein incorporated by reference in its entirety. HbF-positive cells (F cells) are quantified by flow cytometry after compound exposure. Globin gene mRNA abundance is determined by quantitative real-time polymerase chain reaction (qRT-PCR).

SCD mice = assay: Effects on SCD mice (globin gene expression by qRT-PCR, F cells in peripheral blood by flow cytometry), Example 8; format: in vivo
Protocol: The effects of the compounds and formulations described in Sections 3.2 and 3.3 on SCD mice are studied using methods adapted from Sun et al., Br J Haematol. 197:97-109 (2022), the disclosure of which is herein incorporated by reference in its entirety. Relative mRNA abundance of PGC-1α and globin gene expression are determined by quantitative real-time polymerase chain reaction (qRT-PC R). HbF-positive cells (F cells) in peripheral blood of treated SCD mice are quantified by flow cytometry

Solubility (statement) = format: physicochemical
Source text: Oral administration is preferred to parenteral administration for chronic life-long treatment, as is required for treating hemoglobinopathies such as sickle cell disease. […] There is a need, therefore, for agents that increase PGC-1α expression that can be administered orally for treatment of hemoglobinopathies such as SCD.

[2] = tested on: human primary erythroid progenitor CD34+ cells; settings: cited from earlier work
sickle mice = settings: cited from earlier work
[3] = tested on: Ppargc1α (PGC-1α) expression; settings: cited from earlier work
[4] = tested on: murine models of neurodegenerative diseases; settings: cited from earlier work
older mice = settings: cited from earlier work
[5] = tested on: acute systemic immune activation, including cytokine release syndrome (CRS); settings: cited from earlier work

## CC(C)(C)c1ccc(-c2nc3cc(O)ccc3[nH]2)cc1 [Compound 26, 2-(4-tert-Butylphenyl)-1H-benzo[d]imidazol-5-ol]
[1]
  fetal γ-globin mRNA protein expression: induce
  percentage of HbF-positive cells (F cells): induce
SCD mice
  expression of the murine embryonic βh1-globin gene: induce
  human γ-globin gene expression: induce

## CC(C)(C)c1ccc(-c2nc3ccccc3[nH]2)cc1 [TQS-168, 2-(4-tert-butylphenyl)-1H-benzimidazole]
[1]
  fetal γ-globin mRNA protein expression: induce
  percentage of HbF-positive cells (F cells): induce
SCD mice
  expression of the murine embryonic βh1-globin gene: induce
  human γ-globin gene expression: induce
Solubility (statement)
  solubility: poorly soluble
[2]
  cell proliferation and differentiation: without significantly affecting
  fetal γ-globin mRNA and protein expression: induce
  percentage of HbF-positive cell (F cells): induce
Sickle mice
  expression of the murine embryonic βh1-globin gene: robust expression
  γ-globin expression and fetal hemoglobin (HbF) production: induce
[3]
  Ppargc1α (PGC-1α) expression: activator
[4]
  disease severity: reduce
  myeloid-mediated inflammation: suppress
Older mice
  behavioral dysfunction: alleviate
  inflammatory cytokine production in microglia: inhibit
  metabolic dysfunction in microglia: suppress
  systemic inflammation: suppress
[5]
  acute systemic immune activation, including cytokine release syndrome (CRS): suppress
